Measured values published in patent US20030158188A1, “Fused azabicyclic compounds that inhibit vanilloid receptor subtype 1 (VR1) receptor” (priority 2002, published 2003).
Structures can show the parent of a compound that is named as a salt.

Compound | melting point
O=C(NCc1ccc(Br)cc1)Nc1cccc2[nH]ncc12 (as salt: hydrochloride) [Example 89, N-(4-bromobenzyl)-N′-1H-indazol-4-ylurea] | 126 °C
O=C(NCc1ccc(Br)cc1)Nc1cccc2[nH]ccc12 [Example 78, N-(4-bromobenzyl)-N′-1H-indol-4-ylurea] | 198 °C
O=C(NCc1ccc(Cl)c(Cl)c1)Nc1cccc2[nH]ccc12 [Example 79, N-(3,4-dichlorobenzyl)-N′-1H-indol-4-ylurea] | 201 °C
O=C(NCc1ccc(OC(F)(F)F)cc1)Nc1cccc2[nH]ccc12 [Example 81, N-1H-indol-4-yl-N′-[4-(trifluoromethoxy)benzyl]urea] | 177 °C
O=C(NCCc1ccc(Cl)cc1Cl)Nc1cccc2[nH]ccc12 [Example 85, N-[2-(2,4-dichlorophenyl)ethyl]-N′-1H-indol-4-ylurea] | 170 °C
Cc1[nH]c2cccc(NC(=O)NCc3ccc(Br)cc3)c2c1C [Example 88, N-(4-bromobenzyl)-N′-(2,3-dimethyl-1H-indol-4-yl)urea] | 190 °C

Continued, values first:

melting point | Compound
178 °C | O=C(NCc1ccc(C(F)(F)F)cc1)Nc1cccc2[nH]ccc12 [Example 80, N-1H-indol-4-yl-N′-[4-(trifluoromethyl)benzyl]urea]
198 °C | O=C(NCc1ccc(C(F)(F)F)c(F)c1)Nc1cccc2[nH]ccc12 [Example 82, N-[3-fluoro-4-(trifluoromethyl)benzyl]-N′-1H-indol-4-ylurea]
197 °C | O=C(NCc1ccc(Cl)c(C(F)(F)F)c1)Nc1cccc2[nH]ccc12 [Example 83, 1-(4-Chloro-3-trifluoromethyl-benzyl)-3-(1H-indol-4-yl)-urea]
